Experimental data taken from PubChem BioAssay (NCI).
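Each compound was tested at five concentrations against cells in 96-well plates for 48 hours. TGI: total growth inhibition.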

What was measured:
Assay in all cases: DTP human tumour cell line panel, 48 h
A549 NSCLC = tested on: A549 NSCLC
CAKI-1 renal = tested on: CAKI-1 renal
EKVX NSCLC = tested on: EKVX NSCLC
HS 578T breast = tested on: HS 578T breast
MDA-MB-435 = tested on: MDA-MB-435
OVCAR-4 ovarian = tested on: OVCAR-4 ovarian
PC-3 prostate = tested on: PC-3 prostate
RXF 393 renal = tested on: RXF 393 renal
SF-295 CNS = tested on: SF-295 CNS
SK-MEL-2 melanoma = tested on: SK-MEL-2 melanoma

Compound | TGI (A549 NSCLC) | TGI (CAKI-1 renal) | TGI (EKVX NSCLC) | TGI (HS 578T breast) | TGI (MDA-MB-435) | TGI (OVCAR-4 ovarian) | TGI (PC-3 prostate) | TGI (RXF 393 renal) | TGI (SF-295 CNS) | TGI (SK-MEL-2 melanoma)
CC(=O)Oc1c2oc3ccc(Cl)cc3c(=O)c2c(O)c2ccsc12 | > 100 µM | > 100 µM | > 100 µM | > 100 µM | > 100 µM | > 100 µM | > 100 µM | > 100 µM | > 100 µM | > 100 µM
C#CCSC(C=C=C)P(=O)(OC(C)C)OC(C)C (stereo not given) | > 100 µM | > 100 µM | > 100 µM | 44.1 µM | > 100 µM | > 100 µM | > 100 µM | > 100 µM | > 100 µM | > 100 µM
O=C(O)c1nc(-c2ccccc2)[nH]c1C(=O)O | 29.3 µM | 27.5 µM | 33 µM | > 61.2 µM | 21.3 µM | 32.1 µM | 11.6 µM | 26.5 µM | 30.9 µM | 21.3 µM
